Tests used:
[1] = DRUGMATRIX: Imidazoline I2, Central radioligand binding (ligand: [3H] Idazoxan); type: cell membranes, Rattus norvegicus, Wistar, Cerebral cortex, Membrane; details: Not Active = under 50% inhibition at 10 µM
Insulin receptor = Insulin receptor (Rattus norvegicus, UniProt P15127); type: cell membranes, Wistar, Liver, Membrane; note: in other assays of this panel Not Active means under 50% inhibition at 10 µM
[2] = target: T1, Cholecystokinin receptor type A (Homo sapiens, UniProt P32238); type: cell membranes, Membrane; details: 1321-n1; note: in other assays of this panel Not Active means under 50% inhibition at 10 µM
T1 sequence (P32238 whole entry): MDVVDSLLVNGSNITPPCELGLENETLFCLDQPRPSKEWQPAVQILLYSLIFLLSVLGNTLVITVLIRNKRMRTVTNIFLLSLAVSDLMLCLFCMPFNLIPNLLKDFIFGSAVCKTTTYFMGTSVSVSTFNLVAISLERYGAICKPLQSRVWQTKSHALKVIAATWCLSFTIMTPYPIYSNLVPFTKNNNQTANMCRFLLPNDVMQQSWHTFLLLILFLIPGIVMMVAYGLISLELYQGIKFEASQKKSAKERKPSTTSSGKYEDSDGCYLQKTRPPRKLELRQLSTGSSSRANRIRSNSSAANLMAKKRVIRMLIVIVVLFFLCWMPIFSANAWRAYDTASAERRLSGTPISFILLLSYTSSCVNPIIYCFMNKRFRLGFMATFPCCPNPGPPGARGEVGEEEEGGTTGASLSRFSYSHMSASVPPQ

[3] = target: T2, C-X-C chemokine receptor type 1 (Homo sapiens, UniProt P25024); note: in other assays of this panel Not Active means under 50% inhibition at 10 µM
T2 sequence (P25024 whole entry): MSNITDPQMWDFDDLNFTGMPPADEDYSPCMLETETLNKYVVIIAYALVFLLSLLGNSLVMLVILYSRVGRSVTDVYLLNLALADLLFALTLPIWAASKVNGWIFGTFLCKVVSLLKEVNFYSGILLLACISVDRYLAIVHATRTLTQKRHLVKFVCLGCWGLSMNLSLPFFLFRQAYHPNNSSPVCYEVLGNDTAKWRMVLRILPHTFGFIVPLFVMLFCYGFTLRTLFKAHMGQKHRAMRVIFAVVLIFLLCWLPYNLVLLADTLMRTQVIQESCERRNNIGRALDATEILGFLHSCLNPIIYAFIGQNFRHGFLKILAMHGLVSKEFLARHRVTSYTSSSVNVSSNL

[4] = target: T3, Muscarinic acetylcholine receptor M4 (Homo sapiens, UniProt P08173); type: cell membranes, CHO-K1, Membrane; details: cho-k1; note: in other assays of this panel Not Active means under 50% inhibition at 10 µM
T3 sequence (P08173 whole entry): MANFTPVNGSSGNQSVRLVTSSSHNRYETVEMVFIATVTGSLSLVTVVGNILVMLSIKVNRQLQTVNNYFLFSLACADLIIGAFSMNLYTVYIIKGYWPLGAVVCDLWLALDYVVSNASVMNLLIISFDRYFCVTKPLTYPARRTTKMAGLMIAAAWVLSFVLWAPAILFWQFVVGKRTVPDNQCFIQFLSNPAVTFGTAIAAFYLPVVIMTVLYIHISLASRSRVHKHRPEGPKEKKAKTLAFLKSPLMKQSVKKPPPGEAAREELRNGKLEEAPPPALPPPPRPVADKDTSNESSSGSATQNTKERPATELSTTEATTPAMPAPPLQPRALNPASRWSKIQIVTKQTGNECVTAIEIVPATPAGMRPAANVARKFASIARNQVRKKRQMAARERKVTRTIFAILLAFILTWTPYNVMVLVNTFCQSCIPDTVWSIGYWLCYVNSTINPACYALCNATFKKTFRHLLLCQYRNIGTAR

Histamine H2 receptor = Histamine H2 receptor (Homo sapiens, UniProt P25021); type: cell membranes, CHO-K1, Membrane; details: cho-k1; note: in other assays of this panel Not Active means under 50% inhibition at 10 µM
Sequence of Histamine H2 receptor (P25021 whole entry): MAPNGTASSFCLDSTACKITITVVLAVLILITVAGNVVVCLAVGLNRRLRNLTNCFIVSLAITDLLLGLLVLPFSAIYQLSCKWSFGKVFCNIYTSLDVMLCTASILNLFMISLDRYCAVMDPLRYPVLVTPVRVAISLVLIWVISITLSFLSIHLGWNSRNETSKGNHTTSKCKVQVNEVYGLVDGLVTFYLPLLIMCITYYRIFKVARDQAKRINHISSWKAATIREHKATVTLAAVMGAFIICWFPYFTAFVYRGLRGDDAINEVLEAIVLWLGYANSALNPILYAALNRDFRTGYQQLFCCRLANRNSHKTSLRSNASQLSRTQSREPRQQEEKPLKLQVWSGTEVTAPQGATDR

Melanocortin receptor 3 = Melanocortin receptor 3 (Homo sapiens, UniProt P41968); type: cell membranes, Membrane; details: hek293; note: in other assays of this panel Not Active means under 50% inhibition at 10 µM
Sequence of Melanocortin receptor 3 (P41968 whole entry): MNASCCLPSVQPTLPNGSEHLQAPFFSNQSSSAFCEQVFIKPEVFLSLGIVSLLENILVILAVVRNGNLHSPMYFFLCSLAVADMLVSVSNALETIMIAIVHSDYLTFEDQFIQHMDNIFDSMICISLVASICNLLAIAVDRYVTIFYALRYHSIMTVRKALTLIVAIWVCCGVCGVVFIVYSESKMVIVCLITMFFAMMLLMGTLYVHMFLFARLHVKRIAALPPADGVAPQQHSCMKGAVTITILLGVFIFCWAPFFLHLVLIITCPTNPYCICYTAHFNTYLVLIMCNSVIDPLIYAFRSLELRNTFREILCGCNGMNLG

[5] = DRUGMATRIX: Sodium/nucleoside co-transporter radioligand binding (ligand: nitrobenzylthioinosine); type: cell membranes, Cavia porcellus, Dunkin-Hartley, Cerebral cortex, Membrane; details: Not Active = under 50% inhibition at 10 µM
[6] = DRUGMATRIX: Leukotriene, BLT (LTB4) radioligand binding (ligand: [3H]LTB4); type: cell membranes, Membrane; details: u-937; Not Active = under 50% inhibition at 10 µM
Estrogen receptor beta = Estrogen receptor beta (Homo sapiens, UniProt Q92731); details: sf9; note: in other assays of this panel Not Active means under 50% inhibition at 10 µM
Sequence of Estrogen receptor beta (Q92731 whole entry): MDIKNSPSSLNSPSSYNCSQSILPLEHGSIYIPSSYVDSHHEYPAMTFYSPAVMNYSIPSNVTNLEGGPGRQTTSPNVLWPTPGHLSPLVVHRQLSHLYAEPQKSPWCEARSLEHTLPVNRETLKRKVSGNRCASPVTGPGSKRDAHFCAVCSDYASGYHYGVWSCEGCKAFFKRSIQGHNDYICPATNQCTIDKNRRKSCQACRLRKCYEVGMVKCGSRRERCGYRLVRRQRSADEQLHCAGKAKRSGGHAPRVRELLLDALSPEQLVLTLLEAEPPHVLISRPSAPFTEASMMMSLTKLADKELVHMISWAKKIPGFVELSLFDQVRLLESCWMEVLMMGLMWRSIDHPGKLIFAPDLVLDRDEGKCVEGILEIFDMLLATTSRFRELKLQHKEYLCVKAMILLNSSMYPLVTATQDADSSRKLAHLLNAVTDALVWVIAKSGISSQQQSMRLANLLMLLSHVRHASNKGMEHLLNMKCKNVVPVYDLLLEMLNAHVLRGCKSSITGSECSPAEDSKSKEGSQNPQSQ

[7] = target: 5-hydroxytryptamine receptor 4 (Cavia porcellus, UniProt O70528); type: cell membranes, Dunkin-Hartley, Striatum, Membrane; note: in other assays of this panel Not Active means under 50% inhibition at 10 µM
Sequence of 5-hydroxytryptamine receptor 4 (O70528 whole entry): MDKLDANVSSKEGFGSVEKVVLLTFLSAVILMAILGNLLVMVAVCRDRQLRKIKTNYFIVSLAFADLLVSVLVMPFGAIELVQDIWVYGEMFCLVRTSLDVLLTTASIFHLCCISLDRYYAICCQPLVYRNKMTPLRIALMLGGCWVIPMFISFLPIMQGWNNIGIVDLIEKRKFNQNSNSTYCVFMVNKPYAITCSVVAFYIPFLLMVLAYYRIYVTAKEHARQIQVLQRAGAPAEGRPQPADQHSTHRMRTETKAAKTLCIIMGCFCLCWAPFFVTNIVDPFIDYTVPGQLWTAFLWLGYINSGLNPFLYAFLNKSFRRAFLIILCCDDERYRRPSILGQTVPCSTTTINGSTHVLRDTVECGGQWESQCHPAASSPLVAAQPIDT

Cytochrome P450 1A2 = target: T4, Cytochrome P450 1A2 (Homo sapiens, UniProt P05177); details: bti-tn-5b1-4; note: in other assays of this panel Not Active means under 50% inhibition at 10 µM
T4 sequence (P05177 whole entry): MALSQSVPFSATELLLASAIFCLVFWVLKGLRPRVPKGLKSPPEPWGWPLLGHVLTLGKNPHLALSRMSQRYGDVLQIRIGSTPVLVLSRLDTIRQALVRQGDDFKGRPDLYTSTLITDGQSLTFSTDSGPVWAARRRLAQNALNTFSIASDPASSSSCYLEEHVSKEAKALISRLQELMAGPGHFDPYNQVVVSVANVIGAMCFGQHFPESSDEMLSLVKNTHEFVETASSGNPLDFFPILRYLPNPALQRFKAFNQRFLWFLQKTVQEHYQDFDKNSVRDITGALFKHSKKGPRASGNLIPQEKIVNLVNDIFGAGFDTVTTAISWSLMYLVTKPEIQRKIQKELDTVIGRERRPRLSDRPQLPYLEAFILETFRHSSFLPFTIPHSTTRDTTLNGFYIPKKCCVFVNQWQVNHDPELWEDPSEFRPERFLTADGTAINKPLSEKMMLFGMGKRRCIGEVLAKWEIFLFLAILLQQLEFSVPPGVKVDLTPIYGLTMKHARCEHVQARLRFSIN

Cytochrome P450 2D6 = Cytochrome P450 2D6 (Homo sapiens, UniProt P10635); details: bti-tn-5b1-4; note: in other assays of this panel Not Active means under 50% inhibition at 10 µM
Sequence of Cytochrome P450 2D6 (P10635 whole entry): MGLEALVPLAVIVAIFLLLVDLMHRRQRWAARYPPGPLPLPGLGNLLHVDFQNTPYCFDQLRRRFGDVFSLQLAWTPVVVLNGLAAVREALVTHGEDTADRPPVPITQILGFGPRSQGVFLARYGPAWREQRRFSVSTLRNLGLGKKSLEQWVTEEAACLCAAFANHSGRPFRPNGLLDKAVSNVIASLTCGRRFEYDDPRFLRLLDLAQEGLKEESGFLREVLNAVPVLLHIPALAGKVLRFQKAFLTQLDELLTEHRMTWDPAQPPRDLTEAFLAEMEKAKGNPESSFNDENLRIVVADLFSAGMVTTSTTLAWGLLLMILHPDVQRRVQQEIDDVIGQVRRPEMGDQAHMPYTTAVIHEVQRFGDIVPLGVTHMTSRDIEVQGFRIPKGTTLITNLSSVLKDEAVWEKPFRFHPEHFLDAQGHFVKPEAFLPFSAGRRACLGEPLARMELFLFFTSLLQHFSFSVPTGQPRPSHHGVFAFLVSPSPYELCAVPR

[8] = target: Beta-2 adrenergic receptor (Homo sapiens, UniProt P07550); test: DRUGMATRIX: Adrenergic beta2 radioligand binding (ligand: [3H] CGP-12177); type: cell membranes, Membrane; details: cho; Not Active = under 50% inhibition at 10 µM
Sequence of Beta-2 adrenergic receptor (P07550 whole entry): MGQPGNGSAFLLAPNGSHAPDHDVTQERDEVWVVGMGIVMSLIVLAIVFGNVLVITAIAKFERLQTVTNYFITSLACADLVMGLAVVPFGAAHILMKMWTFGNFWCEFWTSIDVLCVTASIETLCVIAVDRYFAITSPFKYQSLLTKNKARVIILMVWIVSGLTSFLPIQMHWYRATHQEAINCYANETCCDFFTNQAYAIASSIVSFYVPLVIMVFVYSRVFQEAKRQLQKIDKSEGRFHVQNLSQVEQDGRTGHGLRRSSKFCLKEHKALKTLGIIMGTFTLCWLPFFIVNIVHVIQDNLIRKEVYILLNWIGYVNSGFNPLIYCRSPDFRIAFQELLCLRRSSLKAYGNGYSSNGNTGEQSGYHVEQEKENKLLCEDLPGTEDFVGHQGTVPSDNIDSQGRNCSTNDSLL

Sequence of Insulin receptor (P15127 27-759 limits assumed): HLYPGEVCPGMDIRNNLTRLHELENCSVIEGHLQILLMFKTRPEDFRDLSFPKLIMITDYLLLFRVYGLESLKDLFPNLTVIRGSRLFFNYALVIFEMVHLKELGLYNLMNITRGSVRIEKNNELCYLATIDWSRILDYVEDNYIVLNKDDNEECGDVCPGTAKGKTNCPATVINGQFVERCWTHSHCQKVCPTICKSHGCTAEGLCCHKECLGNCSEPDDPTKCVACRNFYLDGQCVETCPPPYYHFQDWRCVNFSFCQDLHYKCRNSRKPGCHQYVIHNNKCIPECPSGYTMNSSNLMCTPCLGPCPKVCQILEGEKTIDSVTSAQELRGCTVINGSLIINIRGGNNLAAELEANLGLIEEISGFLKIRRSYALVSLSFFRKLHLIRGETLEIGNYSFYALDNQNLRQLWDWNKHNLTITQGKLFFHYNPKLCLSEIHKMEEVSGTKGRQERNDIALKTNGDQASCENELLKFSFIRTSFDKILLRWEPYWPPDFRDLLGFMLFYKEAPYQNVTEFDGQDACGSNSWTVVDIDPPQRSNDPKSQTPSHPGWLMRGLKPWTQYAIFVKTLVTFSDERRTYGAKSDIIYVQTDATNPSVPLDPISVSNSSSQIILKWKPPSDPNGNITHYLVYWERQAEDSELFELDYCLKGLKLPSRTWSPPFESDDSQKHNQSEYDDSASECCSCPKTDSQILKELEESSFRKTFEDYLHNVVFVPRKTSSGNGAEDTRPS
Sequence of Insulin receptor (P15127 764-1383 limits assumed): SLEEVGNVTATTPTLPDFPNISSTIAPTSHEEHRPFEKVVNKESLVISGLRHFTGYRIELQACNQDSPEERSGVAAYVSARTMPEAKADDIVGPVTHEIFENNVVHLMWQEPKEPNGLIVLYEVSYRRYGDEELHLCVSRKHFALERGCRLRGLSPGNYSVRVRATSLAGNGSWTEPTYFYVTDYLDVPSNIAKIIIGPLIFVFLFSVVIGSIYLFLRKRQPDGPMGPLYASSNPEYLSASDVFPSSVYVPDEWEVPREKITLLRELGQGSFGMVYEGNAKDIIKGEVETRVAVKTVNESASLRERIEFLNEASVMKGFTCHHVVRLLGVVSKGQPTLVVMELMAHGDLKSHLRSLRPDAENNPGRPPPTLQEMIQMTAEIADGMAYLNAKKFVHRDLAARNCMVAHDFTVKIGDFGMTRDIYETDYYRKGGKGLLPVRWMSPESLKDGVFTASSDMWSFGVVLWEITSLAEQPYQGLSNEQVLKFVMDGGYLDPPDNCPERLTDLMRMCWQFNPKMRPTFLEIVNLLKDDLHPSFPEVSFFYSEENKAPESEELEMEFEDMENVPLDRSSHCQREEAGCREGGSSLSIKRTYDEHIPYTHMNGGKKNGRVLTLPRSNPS

| Compound | IC50 [1] | Ki [1] | IC50 (Insulin receptor) | IC50 [2] | IC50 [3] | IC50 [4] | IC50 (Histamine H2 receptor) | IC50 (Melanocortin receptor 3) | IC50 [5] | Ki [5] | IC50 [6] | Ki [6] | IC50 [7] | IC50 (Cytochrome P450 1A2) | Ki (Cytochrome P450 1A2) | IC50 (Cytochrome P450 2D6) | Ki (Cytochrome P450 2D6) | IC50 [8] | also measured |
| --- | --- | --- | --- | --- | --- | --- | --- | --- | --- | --- | --- | --- | --- | --- | --- | --- | --- | --- | --- |
| CC(C)NC[C@H](O)COc1cccc2[nH]ccc12 | Not Active | Not Active | Not Active | Not Active | Not Active | Not Active | Not Active | Not Active | Not Active | Not Active | Not Active | Not Active | Not Active | – | – | – | – | – | IC50 (Estrogen receptor beta): Not Active |
| CN1C[C@H](C(=O)N[C@]2(C)O[C@@]3(O)[C@@H]4CCCN4C(=O)[C@H](Cc4ccccc4)N3C2=O)C=C2c3cccc4[nH]cc(c34)C[C@H]21 [ERGOTAMINE] | – | – | Not Active | Not Active | Not Active | Not Active | Not Active | Not Active | Not Active | Not Active | Not Active | Not Active | – | Not Active | Not Active | Not Active | Not Active | – | IC50 ([1]; read-out: IC50): 3.65 nM; Ki ([1]; read-out: Ki): 2.43 nM; IC50 (Estrogen receptor beta): Not Active; IC50 ([7]; read-out: IC50): 1580 nM; Ki ([7]; read-out: Ki): 264 nM |
| O=C1NC(=O)C(c2ccccc2)(c2ccccc2)N1 [PHENYTOIN] | Not Active | Not Active | Not Active | Not Active | Not Active | Not Active | Not Active | Not Active | Not Active | Not Active | Not Active | Not Active | Not Active | Not Active | Not Active | Not Active | Not Active | Not Active | – |
| NCC1(CC(=O)O)CCCCC1 [GABAPENTIN] | Not Active | Not Active | Not Active | Not Active | Not Active | Not Active | Not Active | Not Active | Not Active | Not Active | Not Active | Not Active | Not Active | Not Active | Not Active | Not Active | Not Active | Not Active | – |
| CC1=Nc2ccc(Cl)cc2S(=O)(=O)N1 [DIAZOXIDE] | Not Active | Not Active | Not Active | Not Active | Not Active | Not Active | Not Active | Not Active | Not Active | Not Active | Not Active | Not Active | Not Active | Not Active | Not Active | Not Active | Not Active | Not Active | – |
| COc1ccc2c(c1)c(CC(=O)OCC(=O)O)c(C)n2C(=O)c1ccc(Cl)cc1 [ACEMETACIN] | Not Active | Not Active | Not Active | Not Active | Not Active | Not Active | Not Active | Not Active | Not Active | Not Active | Not Active | Not Active | Not Active | Not Active | Not Active | Not Active | Not Active | Not Active | – |
| CC1COc2c(N3CCN(C)CC3)c(F)cc3c(=O)c(C(=O)O)cn1c23 (centres undefined) [OFLOXACIN] | Not Active | Not Active | Not Active | Not Active | Not Active | Not Active | Not Active | Not Active | Not Active | Not Active | Not Active | Not Active | Not Active | Not Active | Not Active | Not Active | Not Active | Not Active | – |
| CN1C(C(=O)Nc2ccccn2)=C(O)c2ccccc2S1(=O)=O [PIROXICAM] | Not Active | Not Active | Not Active | Not Active | Not Active | Not Active | Not Active | Not Active | Not Active | Not Active | Not Active | Not Active | Not Active | Not Active | Not Active | Not Active | Not Active | Not Active | – |
| CC(C)n1c(/C=C/C(O)CC(O)CC(=O)O)c(-c2ccc(F)cc2)c2ccccc21 (centres undefined) [FLUVASTATIN] | Not Active | Not Active | Not Active | Not Active | Not Active | Not Active | Not Active | Not Active | Not Active | Not Active | Not Active | Not Active | Not Active | Not Active | Not Active | Not Active | Not Active | Not Active | – |
